This test deals with MV-4-11 cells. The test can be described thus: Gene expression microarray analysis (Affymetrix PrimeView) and GSEA. The class given is cell-based, human. As to conditions: ProbeSet 11749781_s_at; LIST B. On the set-up: RFU PODN (11730768_x_at) / Fold change /veh PODN (11730768_x_at) / RFU LINC00158 (11744669_a_at) / Fold change /veh LINC00158 (11744669_a_at) / RFU DUSP10 (11751237_a_at) / Fold change /veh DUSP10 (11751237_a_at) / RFU ID3 (11757404_x_at) / Fold change /veh ID3 (11757404_x_at) / RFU PLEKHG5 (11737974_s_at) / Fold change /veh PLEKHG5 (11737974_s_at) / RFU LRRC4B (11730491_at) / Fold change /veh LRRC4B (11730491_at) / RFU GIMAP4 (11747438_a_at) / Fold change /veh GIMAP4 (11747438_a_at) / RFU KRT8 (11758183_x_at) / Fold change /veh KRT8 (11758183_x_at) / RFU CNN1 (11734310_a_at) / Fold change /veh CNN1 (11734310_a_at) / RFU VPS37D (11726825_at) / Fold change /veh VPS37D (11726825_at) / RFU C10orf10 (11716522_x_at) / Fold change /veh C10orf10 (11716522_x_at) / RFU KIR2DL2 /// KIR2DL4 /// KIR2DL5A /// KIR2DL5B /// KIR2DS1 /// KIR2DS2 /// KIR2DS3 /// KIR2DS4 /// KIR3DL3 /// KIR3DL3 /// KIR3DS1 (11738374_at) / Fold change /veh KIR2DL2 /// KIR2DL4 /// KIR2DL5A /// KIR2DL5B /// KIR2DS1 /// KIR2DS2 /// KIR2DS3 /// KIR2DS4 /// KIR3DL3 /// KIR3DL3 /// KIR3DS1 (11738374_at) / RFU C1QL1 (11718748_at) / Fold change /veh C1QL1 (11718748_at) / RFU TMPRSS4 (11747572_a_at) / Fold change /veh TMPRSS4 (11747572_a_at) / RFU HAMP (11756126_x_at) / Fold change /veh HAMP (11756126_x_at) / RFU RNFT2 (11725882_a_at) / Fold change /veh RNFT2 (11725882_a_at) / RFU NR4A2 (11747474_a_at) / Fold change /veh NR4A2 (11747474_a_at) / RFU ABCC12 (11746883_a_at) / Fold change /veh ABCC12 (11746883_a_at) / RFU TMEM136 (11760407_x_at) / Fold change /veh TMEM136 (11760407_x_at) / RFU CLDN22 /// WWC2 (11732394_at) / Fold change /veh CLDN22 /// WWC2 (11732394_at) / RFU HLA-DPB1 (11760878_x_at) / Fold change /veh HLA-DPB1 (11760878_x_at) / RFU SPINT1 (11716480_a_at) / Fold change /veh SPINT1 (11716480_a_at) / RFU GAP43 (11754022_s_at) / Fold change /veh GAP43 (11754022_s_at) / RFU A4GNT (11735810_at) / Fold change /veh A4GNT (11735810_at) / RFU PRB3 (11715151_x_at) / Fold change /veh PRB3 (11715151_x_at) / RFU TUBB4B (11761932_at) / Fold change /veh TUBB4B (11761932_at) / RFU CAPN14 (11732068_a_at) / Fold change /veh CAPN14 (11732068_a_at) / RFU TMCC2 (11721928_a_at) / Fold change /veh TMCC2 (11721928_a_at) / RFU IRGQ (11745062_a_at) / Fold change /veh IRGQ (11745062_a_at) / RFU FAM174B (11720279_a_at) / Fold change /veh FAM174B (11720279_a_at) / RFU TMPRSS4 (11748680_a_at) / Fold change /veh TMPRSS4 (11748680_a_at) / RFU FAM212B (11763350_a_at) / Fold change /veh FAM212B (11763350_a_at) / RFU PLEKHG5 (11743358_a_at) / Fold change /veh PLEKHG5 (11743358_a_at) / RFU ZSCAN30 (11745921_a_at) / Fold change /veh ZSCAN30 (11745921_a_at) / RFU CMKLR1 (11741424_a_at) / Fold change /veh CMKLR1 (11741424_a_at) / RFU LOC101060620 /// MAPK8IP1 (11723275_at) / Fold change /veh LOC101060620 /// MAPK8IP1 (11723275_at) / RFU SPTSSB (11747773_x_at) / Fold change /veh SPTSSB (11747773_x_at) / RFU PRSS12 (11739890_at) / Fold change /veh PRSS12 (11739890_at) / RFU BIN1 (11741810_x_at) / Fold change /veh BIN1 (11741810_x_at) / RFU WNT11 (11732464_a_at) / Fold change /veh WNT11 (11732464_a_at) / RFU C10orf10 (11716521_a_at) / Fold change /veh C10orf10 (11716521_a_at) / RFU C5orf56 (11738089_at) / Fold change /veh C5orf56 (11738089_at) / RFU CYB561 (11721691_x_at) / Fold change /veh CYB561 (11721691_x_at) / RFU ANKRD19P (11752326_a_at) / Fold change /veh ANKRD19P (11752326_a_at) / RFU OR2T12 /// OR2T33 /// OR2T8 (11738714_s_at) / Fold change /veh OR2T12 /// OR2T33 /// OR2T8 (11738714_s_at) / RFU VCAN (11748164_a_at) / Fold change /veh VCAN (11748164_a_at) / RFU JSRP1 (11732532_at) / Fold change /veh JSRP1 (11732532_at) / RFU KRTAP10-11 (11738290_x_at) / Fold change /veh KRTAP10-11 (11738290_x_at) / RFU MYO3A (11730013_a_at) / Fold change /veh MYO3A (11730013_a_at) / RFU EBF3 (11725865_a_at) / Fold change /veh EBF3 (11725865_a_at) / RFU CAMK2N1 (11719241_x_at) / Fold change /veh CAMK2N1 (11719241_x_at) / RFU C5orf56 (11738088_a_at) / Fold change /veh C5orf56 (11738088_a_at) / RFU OLFML3 (11715873_a_at) / Fold change /veh OLFML3 (11715873_a_at) / RFU LOC100653217 /// NTM (11731650_a_at) / Fold change /veh LOC100653217 /// NTM (11731650_a_at) / RFU MAPK11 (11762145_a_at) / Fold change /veh MAPK11 (11762145_a_at) / RFU FIZ1 (11724087_x_at) / Fold change /veh FIZ1 (11724087_x_at) / RFU OASL (11726364_x_at) / Fold change /veh OASL (11726364_x_at) / RFU SOX15 (11748057_x_at) / Fold change /veh SOX15 (11748057_x_at) / RFU CD79A (11719716_a_at) / Fold change /veh CD79A (11719716_a_at) / RFU HIST1H1D (11736915_at) / Fold change /veh HIST1H1D (11736915_at) / RFU CASKIN2 (11723855_a_at) / Fold change /veh CASKIN2 (11723855_a_at) / RFU LOC730098 (11760151_x_at) / Fold change /veh LOC730098 (11760151_x_at) / RFU OR4N2 (11742367_at) / Fold change /veh OR4N2 (11742367_at) / RFU PRRT2 (11749266_a_at) / Fold change /veh PRRT2 (11749266_a_at) / RFU SNX32 (11753110_a_at) / Fold change /veh SNX32 (11753110_a_at) / RFU CDHR5 (11726645_a_at) / Fold change /veh CDHR5 (11726645_a_at) / RFU RCAN1 (11760418_a_at) / Fold change /veh RCAN1 (11760418_a_at) / RFU FAM167A (11723789_a_at) / Fold change /veh FAM167A (11723789_a_at) / RFU FAM26E (11764081_at) / Fold change /veh FAM26E (11764081_at) / RFU ISYNA1 (11749810_s_at) / Fold change /veh ISYNA1 (11749810_s_at) / RFU ACY1 (11761880_at) / Fold change /veh ACY1 (11761880_at) / RFU 11764098_at / Fold change /veh 11764098_at / RFU SAMD14 (11745864_x_at) / Fold change /veh SAMD14 (11745864_x_at) / RFU NPB (11741838_a_at) / Fold change /veh NPB (11741838_a_at) / RFU TMPRSS6 (11731388_a_at) / Fold change /veh TMPRSS6 (11731388_a_at) / RFU KRTAP10-2 (11738614_at) / Fold change /veh KRTAP10-2 (11738614_at) / RFU ARHGAP8 /// PRR5-ARHGAP8 (11727945_x_at) / Fold change /veh ARHGAP8 /// PRR5-ARHGAP8 (11727945_x_at) / RFU KRTAP5-7 /// NADSYN1 (11734609_at) / Fold change /veh KRTAP5-7 /// NADSYN1 (11734609_at) / RFU RASL12 (11751679_a_at) / Fold change /veh RASL12 (11751679_a_at) / RFU CDKN2B (11736163_a_at) / Fold change /veh CDKN2B (11736163_a_at) / RFU PRF1 (11729649_at) / Fold change /veh PRF1 (11729649_at) / RFU, ZNF638 /// ZNF638-IT1 / Fold change vs veh, ZNF638 /// ZNF638-IT1 / RFU, PANK3 / Fold change vs veh, PANK3 / RFU, SH3YL1 / Fold change vs veh, SH3YL1 / RFU, ZEB2 / Fold change vs veh, ZEB2 / RFU, NRIP1 / Fold change vs veh, NRIP1 / RFU, PTTG1IP / Fold change vs veh, PTTG1IP / RFU, CAPN2 / Fold change vs veh, CAPN2 / RFU, MED14 / Fold change vs veh, MED14 / RFU, SNORA58 / Fold change vs veh, SNORA58 / RFU, C1orf63 / Fold change vs veh, C1orf63 / RFU, LRRFIP1 / Fold change vs veh, LRRFIP1 / RFU, NDUFAF7 / Fold change vs veh, NDUFAF7 / RFU, SLC12A2 / Fold change vs veh, SLC12A2 / RFU, IBTK / Fold change vs veh, IBTK / RFU, ESF1 / Fold change vs veh, ESF1 / Fold change vs veh, TMEM50B / RFU, TAOK1 / Fold change vs veh, TAOK1 / RFU, ACBD3 / Fold change vs veh, ACBD3 / RFU, TMA16 / Fold change vs veh, TMA16 / RFU, RWDD3 / Fold change vs veh, RWDD3 / RFU, BCAT1 / Fold change vs veh, BCAT1 / RFU, EDEM3 / Fold change vs veh, EDEM3 / RFU, TMEM33 / Fold change vs veh, TMEM33 / RFU, WDR75 / Fold change vs veh, WDR75 / RFU, AHCTF1 / Fold change vs veh, AHCTF1 / RFU, TFRC / Fold change vs veh, TFRC / RFU, ZDHHC17 / Fold change vs veh, ZDHHC17 / RFU, NOM1 / Fold change vs veh, NOM1 / RFU, ARL8B / Fold change vs veh, ARL8B / RFU, ZBTB11 / Fold change vs veh, ZBTB11 / RFU, TAMM41 / Fold change vs veh, TAMM41 / RFU, KIAA1704 /// LOC100996395 / Fold change vs veh, KIAA1704 /// LOC100996395 / RFU, ING1 / Fold change vs veh, ING1 / RFU, TRMT61B / Fold change vs veh, TRMT61B / RFU, FUBP3 / Fold change vs veh, FUBP3 / RFU, TP53 / Fold change vs veh, TP53 / RFU, TNKS2 / Fold change vs veh, TNKS2 / RFU, ZFP14 / Fold change vs veh, ZFP14 / RFU, ACTR2 / Fold change vs veh, ACTR2 / RFU, PPP3R1 / Fold change vs veh, PPP3R1 / RFU, PIK3R1 / Fold change vs veh, PIK3R1 / RFU, HNRNPA1 / Fold change vs veh, HNRNPA1 / RFU, RNF170 / Fold change vs veh, RNF170 / RFU, ZNF28 / Fold change vs veh, ZNF28 / RFU, RNGTT / Fold change vs veh, RNGTT / RFU, OGT / Fold change vs veh, OGT / RFU, BRD1 / Fold change vs veh, BRD1 / RFU, MARS / Fold change vs veh, MARS / RFU, ZNF655 / Fold change vs veh, ZNF655 / RFU, FAHD1 / Fold change vs veh, FAHD1 / RFU, BDP1 / Fold change vs veh, BDP1 / RFU, LRRCC1 / Fold change vs veh, LRRCC1 / RFU, ARID1A / Fold change vs veh, ARID1A / RFU, ZNF146 / Fold change vs veh, ZNF146 / RFU, ZNF330 / Fold change vs veh, ZNF330 / RFU, GPN3 / Fold change vs veh, GPN3 / RFU, C9orf123 / Fold change vs veh, C9orf123 / RFU, N4BP2L2 / Fold change vs veh, N4BP2L2 / RFU, ARFIP1 / Fold change vs veh, ARFIP1 / RFU, FAM179B / Fold change vs veh, FAM179B / RFU, BCL10 / Fold change vs veh, BCL10 / RFU, UHRF1BP1L / Fold change vs veh, UHRF1BP1L / RFU, BET1 / Fold change vs veh, BET1 / RFU, CNOT2 / Fold change vs veh, CNOT2 / RFU, ZNF268 / Fold change vs veh, ZNF268 / Fold change vs veh, ZNF507 / RFU, DGCR2 / Fold change vs veh, DGCR2 / RFU, WDSUB1 / Fold change vs veh, WDSUB1 / Fold change vs veh, HSP90B1 /// MIR3652 / RFU, ADSS / Fold change vs veh, ADSS / RFU, GK / Fold change vs veh, GK / RFU, ZNF148 / Fold change vs veh, ZNF148 / RFU, TAF9 / Fold change vs veh, TAF9 / RFU, SLC1A5 / Fold change vs veh, SLC1A5 / RFU, SLMO2 / Fold change vs veh, SLMO2 / RFU, ABCC4 / Fold change vs veh, ABCC4 / RFU, LOC101060439 /// RAP1B / Fold change vs veh, LOC101060439 /// RAP1B / RFU, RFX7 / Fold change vs veh, RFX7 / RFU, GTPBP10 / Fold change vs veh, GTPBP10 / RFU, CNEP1R1 / Fold change vs veh, CNEP1R1 / RFU, BIVM-ERCC5 /// ERCC5 / Fold change vs veh, BIVM-ERCC5 /// ERCC5 / RFU, ILF3 / Fold change vs veh, ILF3 / RFU 11762660_at / Fold change /veh 11762660_at / RFU VCAN (11757783_s_at) / Fold change /veh VCAN (11757783_s_at) / RFU DDX43 (11728927_at) / Fold change /veh DDX43 (11728927_at) / RFU KRT8 (11758188_x_at) / Fold change /veh KRT8 (11758188_x_at) / RFU NKD1 (11759106_at) / Fold change /veh NKD1 (11759106_at) / RFU SRD5A1 (11742802_a_at) / Fold change /veh SRD5A1 (11742802_a_at) / RFU TPSAB1 /// TPSB2 (11721975_s_at) / Fold change /veh TPSAB1 /// TPSB2 (11721975_s_at) / RFU GSTM3 (11746129_a_at) / Fold change /veh GSTM3 (11746129_a_at) / RFU IL23R (11737362_x_at) / Fold change /veh IL23R (11737362_x_at) / RFU TMEM51 (11727254_a_at) / Fold change /veh TMEM51 (11727254_a_at) / RFU PIWIL2 (11732686_x_at) / Fold change /veh PIWIL2 (11732686_x_at) / RFU ORM1 (11744905_x_at) / Fold change /veh ORM1 (11744905_x_at) / RFU CCDC152 (11743942_at) / Fold change /veh CCDC152 (11743942_at) / RFU ECM1 (11717891_a_at) / Fold change /veh ECM1 (11717891_a_at) / RFU IL23R (11748794_a_at) / Fold change /veh IL23R (11748794_a_at) / RFU TNFAIP8L3 (11732012_x_at) / Fold change /veh TNFAIP8L3 (11732012_x_at) / RFU MBOAT4 (11741988_at) / Fold change /veh MBOAT4 (11741988_at) / RFU 11764193_at / Fold change /veh 11764193_at / RFU TMEM53 (11763286_at) / Fold change /veh TMEM53 (11763286_at) / RFU MAGEB2 (11727129_at) / Fold change /veh MAGEB2 (11727129_at) / RFU TMEM200A (11744735_a_at) / Fold change /veh TMEM200A (11744735_a_at) / RFU CCDC152 (11751479_a_at) / Fold change /veh CCDC152 (11751479_a_at) / RFU FAM211A (11726209_a_at) / Fold change /veh FAM211A (11726209_a_at) / RFU RGS16 (11746705_a_at) / Fold change /veh RGS16 (11746705_a_at) / RFU VCAN (11755009_s_at) / Fold change /veh VCAN (11755009_s_at) / RFU RHOB (11743442_s_at) / Fold change /veh RHOB (11743442_s_at) / RFU RGS16 (11720943_a_at) / Fold change /veh RGS16 (11720943_a_at) / RFU RGS16 (11720944_at) / Fold change /veh RGS16 (11720944_at) / RFU, VPS4B / Fold change vs veh, VPS4B / RFU, CREB1 / Fold change vs veh, CREB1 / RFU, DNAJC13 / Fold change vs veh, DNAJC13 / RFU, GNAQ / Fold change vs veh, GNAQ / RFU, CDK5R1 / Fold change vs veh, CDK5R1 / RFU, ZRANB3 / Fold change vs veh, ZRANB3 / RFU, CUL4A / Fold change vs veh, CUL4A / RFU, CCNY / Fold change vs veh, CCNY / RFU, UFL1 / Fold change vs veh, UFL1 / RFU, COG3 / Fold change vs veh, COG3 / RFU, DIAPH2 / Fold change vs veh, DIAPH2 / RFU, SKA2 / Fold change vs veh, SKA2 / RFU, AFF3 / Fold change vs veh, AFF3 / RFU, LMF1 / Fold change vs veh, LMF1 / RFU, IPO11 / Fold change vs veh, IPO11 / RFU, DFFB / Fold change vs veh, DFFB / RFU, FOXP1 / Fold change vs veh, FOXP1 / RFU, CARD8 / Fold change vs veh, CARD8 / RFU, STRN3 / Fold change vs veh, STRN3 / RFU, ADK / Fold change vs veh, ADK / RFU, RASSF2 / Fold change vs veh, RASSF2 / RFU, WIPF1 / Fold change vs veh, WIPF1 / RFU, LARP1B / Fold change vs veh, LARP1B / RFU, RASA1 / Fold change vs veh, RASA1 / RFU, RB1 / Fold change vs veh, RB1 / RFU, PPFIA1 / Fold change vs veh, PPFIA1 / RFU, MAT2A / Fold change vs veh, MAT2A / RFU, CCT5 / Fold change vs veh, CCT5 / RFU, WDR92 / Fold change vs veh, WDR92 / RFU, CUX1 / Fold change vs veh, CUX1 / RFU, TTC7A / Fold change vs veh, TTC7A / RFU, TMEM135 / Fold change vs veh, TMEM135 / RFU, DEPTOR / Fold change vs veh, DEPTOR / RFU, CPM / Fold change vs veh, CPM / RFU, DNAJB6 / Fold change vs veh, DNAJB6 / RFU, CACNA2D3 / Fold change vs veh, CACNA2D3 / RFU, DTX4 / Fold change vs veh, DTX4 / RFU, TFCP2 / Fold change vs veh, TFCP2 / RFU, GMCL1 /// GMCL1P1 / Fold change vs veh, GMCL1 /// GMCL1P1 / RFU, AEBP2 / Fold change vs veh, AEBP2 / RFU, SNHG1 /// SNORD22 /// SNORD25 /// SNORD26 /// SNORD27 /// SNORD28 /// SNORD29 /// SNORD31 / Fold change vs veh, SNHG1 /// SNORD22 /// SNORD25 /// SNORD26 /// SNORD27 /// SNORD28 /// SNORD29 /// SNORD31 / Fold change (Aza/veh), C12orf56 (ProbeSet 11735607_a_at) / Fold change (ACY-1035/veh), C12orf56 (ProbeSet 11735607_a_at) / Fold change (Aza/veh), FGFR1OP (ProbeSet 11751329_s_at) / Fold change (ACY-1035/veh), FGFR1OP (ProbeSet 11751329_s_at) / Fold change (Aza/veh), VPS36 (ProbeSet 11739960_a_at) / Fold change (ACY-1035/veh), VPS36 (ProbeSet 11739960_a_at) / RFU SYPL1 (11715823_x_at) / Fold change /veh SYPL1 (11715823_x_at) / RFU IGFBP7 (11715501_s_at) / Fold change /veh IGFBP7 (11715501_s_at) / RFU REEP3 (11722064_at) / Fold change /veh REEP3 (11722064_at) / RFU IGLL1 (11728026_x_at) / Fold change /veh IGLL1 (11728026_x_at): dose or concentration left out as unconfirmed.

SMILES strings stand for the structures.

For `Nc1ccc(-c2cccs2)cc1NC(=O)c1ccc2c(c1)cc(C1CC1)n2CCN1CCOCC1` [ACY-1035], the “RFU, BCAT1” value was 11.38 RFU.

Source of the values: paper PMC5218480 (PLoS ONE, 2017).
